# Like-named read-outs stand apart in the source and are kept apart here.
# Key:
# Type in all cases: in vivo
# Anagallis arvensis = test: Field trial post-emergence in maize: ANGAR; conditions: 7-14 DAA; # = 2; g a.c./ha: PYR 300, MES 100, PYR + MES 300 + 90
# Description: (§1) Herbicidal activity of herbicide compositions according to the first aspect of the present invention with regard to different types of unwanted vegetation was determined during trials performed on test fields (field trials). Individual compositions comprising pyridate and individual compositions comprising a defined 4-HPPD inhibitor are compared with a herbicide composition according to the invention comprising both pyridate and a defined 4-HPPD inhibitor. The expected activity of the combination of the active compounds pyridate and a defined 4-HPPD inhibitor is calculated according to above mentioned calculation method by Colby, in order to evaluate a synergistic effect between pyridate and a defined 4-HPPD inhibitor.
# (§2) Herbicidal activity was determined by applying herbicide compositions on emerged unwanted vegetation on fields where maize was cultivated. Pyridate and a defined 4-HPPD inhibitor were applied as a tank mixture by mixing these active compounds prior to use in a spray tank. The corresponding mixture was in the form of a spray liquor. […] At a specified number of days after application (DAA), the degree of damage to the unwanted vegetation is rated in % of plants of unwanted vegetation that were killed, which was assessed by visually controlling the plants.
# Capsella bursa-pastoris = test: Field trial post-emergence in maize: CAPBP
# Description: as §1
# (§3) Herbicidal activity was determined by applying herbicide compositions on emerged unwanted vegetation on fields where maize was cultivated. Pyridate and a defined 4-HPPD inhibitor were applied as a tank mixture by mixing these active compounds prior to use in a spray tank. The corresponding mixture was in the form of a spray liquor. Besides, spray liquors of individual compositions comprising pyridate and of individual compositions comprising a defined 4-HPPD inhibitor were used. Test plants of unwanted vegetation with a growth stage corresponding to BBCH 10-18 (according to the extended BBCH-scale) were sprayed with the active compound preparations such that particular desired amounts of active compounds are applied per unit area. Spray liquor was diluted with water to arrive at an application volume of 50 to 450 L/ha. At a specified number of days after application (DAA), the degree of damage to the unwanted vegetation is rated in % of plants of unwanted vegetation that were killed, which was assessed by visually controlling the plants.
# Echinochloa crus-galli = test: Field trial post-emergence in maize: ECHCG; conditions: for herbicidal effect (h.e.): g a.c./ha: PYR 300, MES 100, PYR + MES 300 + 90
# Description: as §1, §3
# Hibiscus ternatus = test: Field trial post-emergence in maize: HIBTR; conditions: 7-14 DAA; # = 2; g a.c./ha: PYR 300, MES 100, PYR + MES 300 + 90
# Description: as §1, §2
# Papaver rhoeas = test: Field trial post-emergence in maize: PAPRH; conditions: # = 1, g a.c./ha: PYR 300, MES 100, PYR + MES 300 + 90
# Description: as §1, §3
# Persicaria maculosa = test: Field trial post-emergence in maize: POLPE; conditions: for herbicidal effect (h.e.): g a.c./ha: PYR 300, MES 100, PYR + MES 300 + 90
# Description: as §1, §3
# Portulaca oleracea = test: Field trial post-emergence in maize: POROL; conditions: # = 1, g a.c./ha: PYR 300, MES 100, PYR + MES 300 + 90
# Description: as §1, §3
# Sorghum halepense = test: Field trial post-emergence in maize: SORHA; conditions: 7-14 DAA; # = 1; g a.c./ha: PYR 300, MES 100, PYR + MES 300 + 90
# Description: as §1, §2
# Stachys arvensis = test: Field trial post-emergence in maize: STAAR; conditions: 7-14 DAA; # = 1; g a.c./ha: PYR 300, MES 100, PYR + MES 300 + 90
# Description: as §1, §2
# Thlaspi arvense = test: Field trial post-emergence in maize: THLAR; conditions: # = 1, g a.c./ha: PYR 300, MES 100, PYR + MES 300 + 90
# Description: as §1, §3
# Veronica persica = test: Field trial post-emergence in maize: VERPE; conditions: for herbicidal effect (h.e.): g a.c./ha: PYR 300, MES 100, PYR + MES 300 + 90
# Description: as §1, §3
# [1] = system: Brassica rapa Canola cultivars; test: Field trial post-emergence in maize: BRSRC; conditions: 13-14 DAA; # = 1; g a.c./ha: PYR 450, MES 144, PYR + MES 450 + 144
# Description: as §1, §3
# Digitaria sanguinalis = test: Examples 6-8 herbicidal effect: DIGSA; conditions: 7 DAA
# Convolvulus arvensis = test: Field trial post-emergence in maize: CONAR
# Description: as §1, §3
# (§4) Example 1 concerns a herbicide composition comprising a combination of pyridate and mesotrione, which was applied post-emergence on unwanted vegetation on a field where maize was cultivated, according to the test conditions mentioned above.
# Kickxia elatine = test: Field trial post-emergence in maize: KICEL
# Description: as §1, §3, §4
# Mercurialis annua = test: Field trial post-emergence in maize: MERAN
# Description: as §1, §3, §4
# Setaria verticillata = test: Field trial post-emergence in maize: SETVE
# Description: as §1, §3, §4
# Viola arvensis = test: Field trial post-emergence in maize: VIOAR
# Description: as §1, §3, §4
compound,measurement,setting,value
"CS(=O)(=O)c1ccc(C(=O)C2C(=O)CCCC2=O)c([N+](=O)[O-])c1 [MES, 2-(4-methylsulfonyl-2-nitrobenzoyl) cyclohexane-1,3-dione]",herbicidal effect (h.e.),Anagallis arvensis,98%
same,MES h.e.,Capsella bursa-pastoris,97%
same,herbicidal effect (h.e.),"Capsella bursa-pastoris; 7-14 DAA, # = 3, g a.c./ha: PYR 300, MES 100, PYR + MES 300 + 90",90%
same,MES h.e.,Capsella bursa-pastoris; CAPBP 14-20 DAA 300 g a.c./ha,97%
same,MES h.e.,Capsella bursa-pastoris; CAPBP 14-20 DAA 600 g a.c./ha,97%
same,MES h.e.,Capsella bursa-pastoris; CAPBP 24-31 DAA 45 g a.c./ha,97%
same,herbicidal effect (h.e.),"Echinochloa crus-galli; 7-14 DAA, # = 9",67%
same,herbicidal effect (h.e.),"Echinochloa crus-galli; 18-28 DAA, # = 14",51%
same,herbicidal effect (h.e.),"Echinochloa crus-galli; 31-48 DAA, # = 13",50%
same,MES h.e.,Echinochloa crus-galli; ECHCG 14-20 DAA 45 g a.c./ha,86%
same,MES h.e.,Echinochloa crus-galli; ECHCG 14-20 DAA 90 g a.c./ha,95%
same,MES h.e.,Echinochloa crus-galli; ECHCG 14-20 DAA 135 g a.c./ha,97%
same,MES h.e.,Echinochloa crus-galli; ECHCG 24-31 DAA 45 g a.c./ha,80%
same,MES h.e.,Echinochloa crus-galli; ECHCG 24-31 DAA 90 g a.c./ha,95%
same,MES h.e.,Echinochloa crus-galli; ECHCG 24-31 DAA 135 g a.c./ha,97%
same,herbicidal effect (h.e.),Hibiscus ternatus,62%
same,herbicidal effect (h.e.),Papaver rhoeas; 18-28 DAA,80%
same,herbicidal effect (h.e.),Papaver rhoeas; 31-48 DAA,89%
same,herbicidal effect (h.e.),"Persicaria maculosa; 7-14 DAA, # = 3",91%
same,herbicidal effect (h.e.),"Persicaria maculosa; 31-48 DAA, # = 4",89%
same,MES h.e.,Persicaria maculosa; POLPE 14-20 DAA 45 g a.c./ha,83%
same,MES h.e.,Persicaria maculosa; POLPE 14-20 DAA 90 g a.c./ha,98%
same,MES h.e.,Persicaria maculosa; POLPE 14-20 DAA 135 g a.c./ha,98%
same,MES h.e.,Persicaria maculosa; POLPE 24-31 DAA 45 g a.c./ha,93%
same,herbicidal effect (h.e.),Portulaca oleracea; 7-14 DAA,50%
same,herbicidal effect (h.e.),Portulaca oleracea; 18-28 DAA,5%
same,herbicidal effect (h.e.),Sorghum halepense,42%
same,herbicidal effect (h.e.),Stachys arvensis,54%
same,herbicidal effect (h.e.),Thlaspi arvense; 7-14 DAA,76%
same,herbicidal effect (h.e.),Thlaspi arvense; 18-28 DAA,97%
same,herbicidal effect (h.e.),"Veronica persica; 7-14 DAA, # = 4",91%
same,herbicidal effect (h.e.),"Veronica persica; 31-48 DAA, # = 5",93%
same,MES h.e.,Veronica persica; VERPE 14-20 DAA 45 g a.c./ha,20%
same,MES h.e.,Veronica persica; VERPE 14-20 DAA 90 g a.c./ha,75%
same,MES h.e.,Veronica persica; VERPE 14-20 DAA 135 g a.c./ha,70%
same,MES h.e.,Veronica persica; VERPE 24-31 DAA 45 g a.c./ha,10%
same,MES h.e.,Veronica persica; VERPE 24-31 DAA 90 g a.c./ha,55%
same,MES h.e.,Veronica persica; VERPE 24-31 DAA 135 g a.c./ha,60%
same,herbicidal effect (h.e.),[1],88%
same,herbicidal effect (h.e.),"Digitaria sanguinalis; g a.c./ha: MES 50, PYR + SMO 300 + 800",95%
same,herbicidal effect (h.e.),"Digitaria sanguinalis; g a.c./ha: MES 80, PYR + MES 300 + 50",92%
same,MES h.e.,Convolvulus arvensis; CONAR 14-20 DAA 45 g a.c./ha,40%
same,MES h.e.,Convolvulus arvensis; CONAR 14-20 DAA 90 g a.c./ha,68%
same,MES h.e.,Convolvulus arvensis; CONAR 14-20 DAA 135 g a.c./ha,83%
same,MES h.e.,Convolvulus arvensis; CONAR 24-31 DAA 135 g a.c./ha,80%
same,MES h.e.,Kickxia elatine; KICEL 14-20 DAA 45 g a.c./ha,0%
same,MES h.e.,Kickxia elatine; KICEL 14-20 DAA 90 g a.c./ha,8%
same,MES h.e.,Kickxia elatine; KICEL 14-20 DAA 135 g a.c./ha,0%
same,MES h.e.,Kickxia elatine; KICEL 24-31 DAA 45 g a.c./ha,0%
same,MES h.e.,Kickxia elatine; KICEL 24-31 DAA 90 g a.c./ha,0%
same,MES h.e.,Kickxia elatine; KICEL 24-31 DAA 135 g a.c./ha,0%
same,MES h.e.,Mercurialis annua; MERAN 14-20 DAA 45 g a.c./ha,95%
same,MES h.e.,Mercurialis annua; MERAN 24-31 DAA 45 g a.c./ha,70%
same,MES h.e.,Setaria verticillata; SETVE 14-20 DAA 45 g a.c./ha,21%
same,MES h.e.,Setaria verticillata; SETVE 14-20 DAA 90 g a.c./ha,41%
same,MES h.e.,Setaria verticillata; SETVE 14-20 DAA 135 g a.c./ha,55%
same,MES h.e.,Setaria verticillata; SETVE 24-31 DAA 45 g a.c./ha,31%
same,MES h.e.,Setaria verticillata; SETVE 24-31 DAA 90 g a.c./ha,37%
same,MES h.e.,Setaria verticillata; SETVE 24-31 DAA 135 g a.c./ha,58%
same,MES h.e.,Viola arvensis; VIOAR 14-20 DAA 45 g a.c./ha,84%
same,MES h.e.,Viola arvensis; VIOAR 14-20 DAA 90 g a.c./ha,95%
same,MES h.e.,Viola arvensis; VIOAR 14-20 DAA 135 g a.c./ha,98%

# Source: patent publication US12396459B2, “Synergistically effective herbicide composition comprising pyridate and at least one defined 4-HPPD inhibitor” (BELCHIM CROP PROTECTION NV, priority 2018, dated 2025)
